Experiments:
human CYP11B1 = target: T1, human CYP11B1 (Homo sapiens, UniProt P15538); assay: G-402 cellular enzyme assay, human CYP11B1 (cortisol release, HTRF); format: cell-based; conditions: G-402 cells, 1 μM Deoxycortisol
T1 construct: expressed in transfected cells
T1 sequence (P15538 25-503): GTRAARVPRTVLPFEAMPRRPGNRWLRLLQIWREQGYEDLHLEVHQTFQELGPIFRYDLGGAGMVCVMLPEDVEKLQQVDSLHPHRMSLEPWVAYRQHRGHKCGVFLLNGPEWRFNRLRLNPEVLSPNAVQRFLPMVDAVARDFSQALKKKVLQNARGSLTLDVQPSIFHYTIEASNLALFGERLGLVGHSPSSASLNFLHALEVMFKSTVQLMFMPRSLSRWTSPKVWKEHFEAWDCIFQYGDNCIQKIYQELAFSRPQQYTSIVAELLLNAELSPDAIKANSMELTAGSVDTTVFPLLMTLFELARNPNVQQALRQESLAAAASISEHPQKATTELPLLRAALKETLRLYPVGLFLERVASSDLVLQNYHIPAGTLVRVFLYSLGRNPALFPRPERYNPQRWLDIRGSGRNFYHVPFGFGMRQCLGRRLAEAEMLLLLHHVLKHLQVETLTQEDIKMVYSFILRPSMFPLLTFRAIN
Method in brief: (§1)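 Stable G-402 transfectants; 16 h incubation with inhibitor plus substrate — CYP11B2: 1 μM deoxycorticosterone, aldosterone read; CYP11B1: 1 μM deoxycortisol, cortisol read. HTRF on supernatant. Medium DMEM/F12, 2.5% charcoal FCS. EC50 via MMF sigmoidal fit.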

human CYP11B2 = target: T2, human CYP11B2 (Homo sapiens, UniProt P19099); assay: G-402 cellular enzyme assay, human CYP11B2 (aldosterone release, HTRF); format: cell-based; conditions: G-402 cells, 1 μM Deoxycorticosterone
T2 construct: expressed in transfected cells
T2 sequence (P19099 25-503): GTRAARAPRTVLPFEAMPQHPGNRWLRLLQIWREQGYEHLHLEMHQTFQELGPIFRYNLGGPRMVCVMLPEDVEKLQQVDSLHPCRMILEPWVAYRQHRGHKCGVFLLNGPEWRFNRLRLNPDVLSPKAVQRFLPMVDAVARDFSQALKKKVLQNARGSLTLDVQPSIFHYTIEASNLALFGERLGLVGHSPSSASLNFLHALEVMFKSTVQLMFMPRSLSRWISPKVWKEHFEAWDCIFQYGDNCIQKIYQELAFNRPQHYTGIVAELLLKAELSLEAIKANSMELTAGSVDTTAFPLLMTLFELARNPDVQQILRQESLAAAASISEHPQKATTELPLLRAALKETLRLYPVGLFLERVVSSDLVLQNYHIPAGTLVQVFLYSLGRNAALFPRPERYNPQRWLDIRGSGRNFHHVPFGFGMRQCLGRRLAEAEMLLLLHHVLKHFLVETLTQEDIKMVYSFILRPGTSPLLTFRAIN
Method in brief: as §1

Compound | EC50 (human CYP11B1) [nM] | EC50 (human CYP11B2) [nM]
CCC(=O)NC1CCCc2c1cncc2N1CCc2cc(Cl)ccc2C1=O (single isomer, unassigned) [Example 329, N-((S or R)-6-Chloro-1-oxo-3,4,5′,6′,7′,8′-hexahydro-1H-[2,4′]biisoquinolinyl-8′-yl)-propionamide] | 12000 | 6020
O=C1OCCN1Cc1cncc(N2CCc3cc(Cl)ccc3C2=O)c1 [Example 157, 6-Chloro-2-[5-(2-oxo-oxazolidin-3-ylmethyl)-pyridin-3-yl]-3,4-dihydro-2H-isoquinolin-1-one] | 11200 | 352
O=C1c2ccc(Cl)cc2CCN1c1cnccc1Cl [Example 6, 6-Chloro-2-(4-chloro-pyridin-3-yl)-3,4-dihydro-2H-isoquinolin-1-one] | 1210 | 30
O=C1CCCCN1Cc1cncc(N2Cc3cc(Cl)ccc3C2=O)c1 [Example 114, 5-Chloro-2-[5-(2-oxo-piperidin-1-ylmethyl)-pyridin-3-yl]-2,3-dihydro-isoindol-1-one] | 12800 | 424
Cn1nccc1-c1cncc(N2C(=O)c3ccc(Cl)nc3C2(C)C)c1 [Example 425, 2-Chloro-7,7-dimethyl-6-[5-(2-methyl-2H-pyrazol-3-yl)-pyridin-3-yl]-6,7-dihydro-pyrrolo[3,4-b]pyridin-5-one] | 1270 | 56.2
O=C1c2ccc(Cl)cc2CCN1c1cncc(CN2CCCC(O)C2)c1 (stereo not shown) [Example 144, 6-Chloro-2-[5-(3-hydroxy-piperidin-1-ylmethyl)-pyridin-3-yl]-3,4-dihydro-2H-isoquinolin-1-one] | 140 | 23.7
CC1(C)c2cc(Cl)ccc2C(=O)N1c1cncc(CNc2cc[nH]n2)c1 [Example 381, 5-Chloro-3,3-dimethyl-2-{5-[(1H-pyrazol-3-ylamino)-methyl]-pyridin-3-yl}-2,3-dihydro-isoindol-1-one] | 138 | 3.4
CC(=O)NC1CCCc2c1cncc2N1C(=O)c2ccc(Cl)cc2C1(C)C (single isomer, unassigned) [Example 466, N—[(S or R)-4-(6-Chloro-1,1-dimethyl-3-oxo-1,3-dihydro-isoindol-2-yl)-5,6,7,8-tetrahydro-isoquinolin-8-yl]-acetamide] | 21300 | 467
CC[C@H]1c2cc(Cl)ccc2C(=O)N1c1cncc2c1CCC[C@@H]2NS(C)(=O)=O (single isomer, unassigned) [Example 348, N-[(S or R)-4-((S or R)-5-Chloro-3-ethyl-1-oxo-1,3-dihydro-isoindol-2-yl)-5,6,7,8-tetrahydro-isoquinolin-8-yl]-methanesulfonamide] | 36900 | 2830
CCC1c2cc(Cl)ccc2C(=O)N1c1cncc(OC(F)F)c1 (stereo not shown) [Example 282, 5-Chloro-2-(5-difluoromethoxy-pyridin-3-yl)-3-ethyl-2,3-dihydro-isoindol-1-one] | 475 | 42.9
O=C(Cc1cncc(N2CCc3cc(Cl)ccc3C2=O)c1)N1CCOCC1 [Example 263, 6-Chloro-2-[5-(2-morpholin-4-yl-2-oxo-ethyl)-pyridin-3-yl]-3,4-dihydro-2H-isoquinolin-1-one] | 4930 | 491
O=Cc1cncc(N2CCc3cc(Cl)ccc3C2=O)c1 [Example 9, 5-(6-Chloro-1-oxo-3,4-dihydro-1H-isoquinolin-2-yl)-pyridine-3-carbaldehyde] | 4740 | 117
CC(NS(C)(=O)=O)c1cncc(N2CCc3cc(Cl)ccc3C2=O)c1 (stereo not shown) [Example 276, N-{1-[5-(6-Chloro-1-oxo-3,4-dihydro-1H-isoquinolin-2-yl)-pyridin-3-yl]-ethyl}-methanesulfonamide] | 2030 | 284
CC1CN(c2cccnc2)C(=O)c2ccc(Cl)cc21 (stereo not shown) [Example 105, 6-Chloro-4-methyl-2-pyridin-3-yl-3,4-dihydro-2H-isoquinolin-1-one] | 4490 | 382
O=C1c2ccc(Cl)cc2CCN1c1cncc(Cc2ccc(N3CCOCC3)nc2)c1 [Example 207, 6-Chloro-2-[5-(6-morpholin-4-yl-pyridin-3-ylmethyl)-pyridin-3-yl]-3,4-dihydro-2H-isoquinolin-1-one] | 18.2 | 2.8
CCC(=O)NCc1cncc(N2C(=O)c3ccc(F)cc3C2(C)C)c1 [Example 398, N-[5-(6-Fluoro-1,1-dimethyl-3-oxo-1,3-dihydro-isoindol-2-yl)-pyridin-3-ylmethyl]-propionamide] | 2300 | 281
COCc1ccncc1N1CCc2cc(Cl)ccc2C1=O [Example 69, 6-Chloro-2-(4-methoxymethyl-pyridin-3-yl)-3,4-dihydro-2H-isoquinolin-1-one] | 7540 | 154
O=C1c2ccc(Cl)cc2CCN1c1cncc(C(O)C(F)(F)F)c1 (stereo not shown) [Example 18, 6-Chloro-2-[5-(2,2,2-trifluoro-1-hydroxy-ethyl)-pyridin-3-yl]-3,4-dihydro-2H-isoquinolin-1-one] | 507 | 58.6
O=C1c2ccc(Cl)cc2CCN1c1cncc(CN2CCCC(F)(F)C2)c1 [Example 172, 6-Chloro-2-[5-(3,3-difluoro-piperidin-1-ylmethyl)-pyridin-3-yl]-3,4-dihydro-2H-isoquinolin-1-one] | 144 | 22.3
COc1cncc(N2C(=O)c3ccc(Cl)cc3C2(C)C)c1 [Example 130, 5-Chloro-2-(5-methoxy-pyridin-3-yl)-3,3-dimethyl-2,3-dihydro-isoindol-1-one] | 240 | 15.5
O=C1c2ccc(Cl)cc2CCN1c1cncc(CN2CC[C@@H](O)C2)c1 [Example 147, 6-Chloro-2-[5-((R)-3-hydroxy-pyrrolidin-1-ylmethyl)-pyridin-3-yl]-3,4-dihydro-2H-isoquinolin-1-one] | 247 | 36.7
O=C1c2ccc(Cl)cc2CCN1c1cncc(COCC(F)(F)F)c1 [Example 202, 6-Chloro-2-[5-(2,2,2-trifluoro-ethoxymethyl)-pyridin-3-yl]-3,4-dihydro-2H-isoquinolin-1-one] | 473 | 65.3
CC1(C)c2cc(Cl)ccc2C(=O)N1c1cncc(OC2CCN(S(C)(=O)=O)C2)c1 (stereo not shown) [Example 445, 5-Chloro-2-[5-(1-methanesulfonyl-pyrrolidin-3-yloxy) -pyridin-3-yl]-3,3-dimethyl-2,3-dihydro-isoindol-1-one] | 914 | 7.4
CC(c1cncc(N2CCc3cc(Cl)ccc3C2=O)c1)n1cncn1 (stereo not shown) [Example 273, 6-Chloro-2-[5-(1-[1,2,4]triazol-1-yl-ethyl)-pyridin-3-yl]-3,4-dihydro-2H-isoquinolin-1-one] | 449 | 64
CC(C)c1nccn1Cc1cncc(N2CCc3cc(Cl)ccc3C2=O)c1 [Example 141, 6-Chloro-2-[5-(2-isopropyl-imidazol-1-ylmethyl)-pyridin-3-yl]-3,4-dihydro-2H-isoquinolin-1-one] | 1310 | 40.5
COC[C@@H]1CCCN1c1cncc(N2CCc3cc(Cl)ccc3C2=O)c1 [Example 49, 6-Chloro-2-[5-((S)-2-methoxymethyl-pyrrolidin-1-yl)-pyridin-3-yl]-3,4-dihydro-2H-isoquinolin-1-one] | 188 | 49.6

Source: patent US9133158B2, “Bicyclic dihydroisoquinoline-1-one derivatives” (Hoffmann-La Roche Inc., priority 2011, dated 2015)
